Reference: PubChem BioAssay (NCI)
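Briefly, cells in 96-well plates were exposed to five compound concentrations for 48 h, and endpoints were estimated by linear interpolation. GI50 marks 50% less growth. TGI marks complete inhibition of growth.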

Tests used:
Test in all cases: DTP human tumour cell line panel, 48 h
SK-MEL-2 melanoma = system: SK-MEL-2 melanoma
SF-268 CNS = system: SF-268 CNS
MOLT-4 leukemia = system: MOLT-4 leukemia
SK-OV-3 ovarian = system: SK-OV-3 ovarian
HOP-92 NSCLC = system: HOP-92 NSCLC
OVCAR-3 ovarian = system: OVCAR-3 ovarian
NCI-H226 lung = system: NCI-H226 lung
NCI/ADR-RES ovarian = system: NCI/ADR-RES ovarian
CCRF-CEM leukemia = system: CCRF-CEM leukemia
DU-145 prostate = system: DU-145 prostate
SN12C renal = system: SN12C renal
TK-10 renal = system: TK-10 renal
MCF7 breast = system: MCF7 breast
SNB-19 CNS = system: SNB-19 CNS
K-562 leukemia = system: K-562 leukemia
A498 renal = system: A498 renal
M14 melanoma = system: M14 melanoma
SW-620 colon = system: SW-620 colon
SK-MEL-28 melanoma = system: SK-MEL-28 melanoma
HS 578T breast = system: HS 578T breast
IGROV1 ovarian = system: IGROV1 ovarian
ACHN renal = system: ACHN renal
HCT-116 colon = system: HCT-116 colon
SF-295 CNS = system: SF-295 CNS
EKVX NSCLC = system: EKVX NSCLC
RPMI-8226 leukemia = system: RPMI-8226 leukemia
UO-31 renal = system: UO-31 renal
786-0 renal = system: 786-0 renal
NCI-H23 lung = system: NCI-H23 lung
OVCAR-4 ovarian = system: OVCAR-4 ovarian
UACC-257 melanoma = system: UACC-257 melanoma
A549 NSCLC = system: A549 NSCLC
HCT-15 colon = system: HCT-15 colon
U251 CNS = system: U251 CNS
PC-3 prostate = system: PC-3 prostate
MALME-3M melanoma = system: MALME-3M melanoma
SF-539 CNS = system: SF-539 CNS
HCC-2998 colon = system: HCC-2998 colon
KM12 colon = system: KM12 colon
HT29 colon = system: HT29 colon
COLO 205 colon = system: COLO 205 colon
LOX IMVI melanoma = system: LOX IMVI melanoma
OVCAR-5 ovarian = system: OVCAR-5 ovarian
NCI-H460 lung = system: NCI-H460 lung
SR leukemia = system: SR leukemia
MDA-MB-231 breast = system: MDA-MB-231 breast
T-47D breast = system: T-47D breast
HOP-62 NSCLC = system: HOP-62 NSCLC
UACC-62 melanoma = system: UACC-62 melanoma
HL-60(TB) leukemia = system: HL-60(TB) leukemia
SK-MEL-5 melanoma = system: SK-MEL-5 melanoma
NCI-H522 lung = system: NCI-H522 lung
OVCAR-8 ovarian = system: OVCAR-8 ovarian

CC[C@H](C)[C@H](NC(=O)c1cnccn1)C(=O)N(C)[C@H](C[C@@H](OC(C)=O)c1nc(C(=O)N[C@@H](Cc2ccccc2)C[C@H](C)C(=O)OC)cs1)C(C)C
GI50 (SK-MEL-2 melanoma): 827 nM
TGI (SK-MEL-2 melanoma): > 33300 nM
GI50 (SF-268 CNS): 1660 nM
TGI (SF-268 CNS): > 33300 nM
GI50 (MOLT-4 leukemia): 2230 nM
TGI (MOLT-4 leukemia): > 33300 nM
GI50 (SK-OV-3 ovarian): 1950 nM
TGI (SK-OV-3 ovarian): > 33300 nM
GI50 (HOP-92 NSCLC): 416 nM
TGI (HOP-92 NSCLC): 11400 nM
GI50 (OVCAR-3 ovarian): 665 nM
TGI (OVCAR-3 ovarian): 1620 nM
GI50 (NCI-H226 lung): 4740 nM
TGI (NCI-H226 lung): > 33300 nM
GI50 (NCI/ADR-RES ovarian): 2810 nM
TGI (NCI/ADR-RES ovarian): > 33300 nM
GI50 (CCRF-CEM leukemia): 1150 nM
TGI (CCRF-CEM leukemia): > 33300 nM
GI50 (DU-145 prostate): 1230 nM
TGI (DU-145 prostate): > 33300 nM
GI50 (SN12C renal): 2220 nM
TGI (SN12C renal): > 33300 nM
GI50 (TK-10 renal): 7180 nM
TGI (TK-10 renal): > 33300 nM
GI50 (MCF7 breast): 90.9 nM
TGI (MCF7 breast): > 33300 nM
GI50 (SNB-19 CNS): 1420 nM
TGI (SNB-19 CNS): > 33300 nM
GI50 (K-562 leukemia): 662 nM
TGI (K-562 leukemia): > 33300 nM
GI50 (A498 renal): 907 nM
TGI (A498 renal): 3150 nM
GI50 (M14 melanoma): 810 nM
TGI (M14 melanoma): 2760 nM
GI50 (SW-620 colon): 1280 nM
TGI (SW-620 colon): > 33300 nM
GI50 (SK-MEL-28 melanoma): 2370 nM
TGI (SK-MEL-28 melanoma): > 33300 nM
GI50 (HS 578T breast): 941 nM
TGI (HS 578T breast): 10600 nM
GI50 (IGROV1 ovarian): 1040 nM
TGI (IGROV1 ovarian): > 33300 nM
GI50 (ACHN renal): 2690 nM
TGI (ACHN renal): > 33300 nM
GI50 (HCT-116 colon): 1190 nM
TGI (HCT-116 colon): > 33300 nM
GI50 (SF-295 CNS): 1030 nM
TGI (SF-295 CNS): > 33300 nM
GI50 (EKVX NSCLC): 1750 nM
TGI (EKVX NSCLC): > 33300 nM
GI50 (RPMI-8226 leukemia): 1070 nM
TGI (RPMI-8226 leukemia): > 33300 nM
GI50 (UO-31 renal): 2230 nM
TGI (UO-31 renal): > 33300 nM
GI50 (786-0 renal): 1710 nM
TGI (786-0 renal): > 21900 nM
GI50 (NCI-H23 lung): 1690 nM
TGI (NCI-H23 lung): > 33300 nM
GI50 (OVCAR-4 ovarian): 2520 nM
TGI (OVCAR-4 ovarian): > 33300 nM
GI50 (UACC-257 melanoma): 5210 nM
TGI (UACC-257 melanoma): 22100 nM
GI50 (A549 NSCLC): 3220 nM
TGI (A549 NSCLC): > 33300 nM
GI50 (HCT-15 colon): 1060 nM
TGI (HCT-15 colon): > 33300 nM
GI50 (U251 CNS): 1180 nM
TGI (U251 CNS): > 33300 nM
GI50 (PC-3 prostate): 1360 nM
TGI (PC-3 prostate): > 33300 nM
GI50 (MALME-3M melanoma): 3300 nM
TGI (MALME-3M melanoma): > 33300 nM
GI50 (SF-539 CNS): 779 nM
TGI (SF-539 CNS): 2090 nM
GI50 (HCC-2998 colon): 1350 nM
TGI (HCC-2998 colon): > 33300 nM
GI50 (KM12 colon): 107 nM
TGI (KM12 colon): > 33300 nM
GI50 (HT29 colon): 1060 nM
TGI (HT29 colon): 6750 nM
GI50 (COLO 205 colon): 1170 nM
TGI (COLO 205 colon): 4100 nM
GI50 (LOX IMVI melanoma): 1630 nM
TGI (LOX IMVI melanoma): > 33300 nM
GI50 (OVCAR-5 ovarian): 3710 nM
TGI (OVCAR-5 ovarian): > 33300 nM
GI50 (NCI-H460 lung): 1150 nM
TGI (NCI-H460 lung): > 33300 nM
GI50 (SR leukemia): 48 nM
TGI (SR leukemia): > 33300 nM
GI50 (MDA-MB-231 breast): 1390 nM
TGI (MDA-MB-231 breast): 19600 nM
GI50 (T-47D breast): 2480 nM
TGI (T-47D breast): > 33300 nM
GI50 (HOP-62 NSCLC): 1880 nM
TGI (HOP-62 NSCLC): > 33300 nM
GI50 (UACC-62 melanoma): 105 nM
TGI (UACC-62 melanoma): > 33300 nM
GI50 (HL-60(TB) leukemia): 900 nM
TGI (HL-60(TB) leukemia): 2240 nM
GI50 (SK-MEL-5 melanoma): 809 nM
TGI (SK-MEL-5 melanoma): 2870 nM
GI50 (NCI-H522 lung): 55.2 nM
TGI (NCI-H522 lung): 2490 nM
GI50 (OVCAR-8 ovarian): 1680 nM
TGI (OVCAR-8 ovarian): > 33300 nM
